Like-named read-outs stand apart in the source and are kept apart here.
Assays:
CDK16/Cyclin Y = CDK16/Cyclin Y (Homo sapiens, UniProt Q00536); test: NanoBRET live-cell target engagement, CDK16-NanoLuc/Cyclin Y in HEK-293; format: binding; settings: CDK16/Y, read-out: Inhibition at 10µM (%)
CDK15/Cyclin Y = CDK15/Cyclin Y (Homo sapiens, UniProt Q96Q40); test: NanoBRET live-cell target engagement, NanoLuc-CDK15/Cyclin Y in HEK-293; format: binding; settings: CDK15/Y, read-out: Inhibition at 10µM (%)
CDK3/Cyclin E1 = CDK3/Cyclin E1 (Homo sapiens, UniProt Q00526); test: NanoBRET live-cell target engagement, CDK3-NanoLuc/Cyclin E1 in HEK-293; format: binding; settings: CDK3/E1, read-out: Inhibition at 10µM (%)
CDK19/Cyclin C = CDK19/Cyclin C (Homo sapiens, UniProt Q9BWU1); test: NanoBRET live-cell target engagement, NanoLuc-CDK19/Cyclin C in HEK-293; settings: read-out: Inhibition at 10µM (%), CDK19/C
CDK13/Cyclin K = CDK13/Cyclin K (Homo sapiens, UniProt Q14004); test: NanoBRET live-cell target engagement, CDK13-NanoLuc/Cyclin K in HEK-293; format: binding; settings: CDK13/K, read-out: Inhibition at 10µM (%)
CDK11A/Cyclin L2 = molecular target: T1, CDK11A/Cyclin L2 (Homo sapiens, UniProt Q9UQ88); test: NanoBRET live-cell target engagement, CDK11A-NanoLuc/Cyclin L2 in HEK-293; format: binding; settings: CDK11a/L2, read-out: Inhibition at 10µM (%)
T1 sequence (Q9UQ88 1-783): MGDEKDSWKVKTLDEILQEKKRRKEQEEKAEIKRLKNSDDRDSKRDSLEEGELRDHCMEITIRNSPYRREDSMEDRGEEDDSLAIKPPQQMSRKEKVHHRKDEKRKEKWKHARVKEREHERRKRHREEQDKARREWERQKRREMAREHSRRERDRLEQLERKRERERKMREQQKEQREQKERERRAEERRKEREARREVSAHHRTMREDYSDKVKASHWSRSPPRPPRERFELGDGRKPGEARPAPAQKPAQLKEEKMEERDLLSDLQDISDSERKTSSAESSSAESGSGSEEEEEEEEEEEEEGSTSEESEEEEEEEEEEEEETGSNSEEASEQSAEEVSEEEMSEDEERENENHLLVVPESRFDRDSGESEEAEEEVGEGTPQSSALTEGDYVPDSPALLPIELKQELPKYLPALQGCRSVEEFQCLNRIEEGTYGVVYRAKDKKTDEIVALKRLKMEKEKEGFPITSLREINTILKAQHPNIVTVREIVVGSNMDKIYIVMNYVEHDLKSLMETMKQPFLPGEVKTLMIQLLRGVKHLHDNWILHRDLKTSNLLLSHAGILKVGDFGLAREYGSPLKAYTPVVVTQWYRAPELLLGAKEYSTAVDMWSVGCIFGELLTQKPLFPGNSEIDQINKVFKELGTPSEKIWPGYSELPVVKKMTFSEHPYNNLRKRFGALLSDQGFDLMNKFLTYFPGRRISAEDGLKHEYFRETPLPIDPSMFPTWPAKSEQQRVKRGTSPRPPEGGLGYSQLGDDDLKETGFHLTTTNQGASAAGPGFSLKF

CDK5/CDK5R1 = CDK5/CDK5R1 (Homo sapiens, UniProt Q00535); test: NanoBRET live-cell target engagement, CDK5-NanoLuc/CDK5R1 in HEK-293; format: binding; settings: CDK5/CDK5R1, read-out: Inhibition at 10µM (%)
CDK7 = CDK7 (Homo sapiens, UniProt P50613); test: NanoBRET live-cell target engagement, NanoLuc-CDK7 in HEK-293; format: binding; settings: CDK7, read-out: Inhibition at 10µM (%)
CDK4/Cyclin D1 = CDK4/Cyclin D1 (Homo sapiens, UniProt P11802); test: NanoBRET live-cell target engagement, NanoLuc-CDK4/Cyclin D1 in HEK-293; format: binding; settings: CDK4/D1, read-out: Inhibition at 10µM (%)
CDK11B/Cyclin L2 = CDK11B/Cyclin L2 (Homo sapiens, UniProt P21127); test: NanoBRET live-cell target engagement, CDK11B-NanoLuc/Cyclin L2 in HEK-293; format: binding; settings: CDK11b/L2, read-out: Inhibition at 10µM (%)
CDK9/Cyclin K = CDK9/Cyclin K (Homo sapiens, UniProt P50750); test: NanoBRET live-cell target engagement, NanoLuc-CDK9/Cyclin K in HEK-293; format: binding; settings: CDK9/K, read-out: Inhibition at 10µM (%)
CDK6/Cyclin D1 = CDK6/Cyclin D1 (Homo sapiens, UniProt Q00534); test: NanoBRET live-cell target engagement, NanoLuc-CDK6/Cyclin D1 in HEK-293; format: binding; settings: CDK6/D1, read-out: Inhibition at 10µM (%)
CDK18/Cyclin Y = CDK18/Cyclin Y (Homo sapiens, UniProt Q07002); test: NanoBRET live-cell target engagement, CDK18-NanoLuc/Cyclin Y in HEK-293; format: binding; settings: CDK18/Y, read-out: Inhibition at 10µM (%)
CDK20/Cyclin H = CDK20/Cyclin H (Homo sapiens, UniProt Q8IZL9); test: NanoBRET live-cell target engagement, NanoLuc-CDK20/Cyclin H in HEK-293; format: binding; settings: CDK20/H, read-out: Inhibition at 10µM (%)
CDK17/Cyclin Y = CDK17/Cyclin Y (Homo sapiens, UniProt Q00537); test: NanoBRET live-cell target engagement, CDK17-NanoLuc/Cyclin Y in HEK-293; format: binding; settings: CDK17/Y, read-out: Inhibition at 10µM (%)
CDK8/Cyclin C = CDK8/Cyclin C (Homo sapiens, UniProt P49336); test: NanoBRET live-cell target engagement, NanoLuc-CDK8/Cyclin C in HEK-293; format: binding; settings: CDK8/C, read-out: Inhibition at 10µM (%)
CDK1/Cyclin E1 = CDK1/Cyclin E1 (Homo sapiens, UniProt P06493); test: NanoBRET live-cell target engagement, CDK1-NanoLuc/Cyclin E1 in HEK-293; format: binding; settings: CDK1/E1, read-out: Inhibition at 10µM (%)
CDK12/Cyclin K = CDK12/Cyclin K (Homo sapiens, UniProt Q9NYV4); test: NanoBRET live-cell target engagement, CDK12-NanoLuc/Cyclin K in HEK-293; format: binding; settings: CDK12/K, read-out: Inhibition at 10µM (%)
CDK2/Cyclin E1 = CDK2/Cyclin E1 (Homo sapiens, UniProt P24941); test: NanoBRET live-cell target engagement, CDK2-NanoLuc/Cyclin E1 in HEK-293; format: binding; settings: CDK2/E1, read-out: Inhibition at 10µM (%)

Sequence of CDK3/Cyclin E1 (Q00526 whole entry): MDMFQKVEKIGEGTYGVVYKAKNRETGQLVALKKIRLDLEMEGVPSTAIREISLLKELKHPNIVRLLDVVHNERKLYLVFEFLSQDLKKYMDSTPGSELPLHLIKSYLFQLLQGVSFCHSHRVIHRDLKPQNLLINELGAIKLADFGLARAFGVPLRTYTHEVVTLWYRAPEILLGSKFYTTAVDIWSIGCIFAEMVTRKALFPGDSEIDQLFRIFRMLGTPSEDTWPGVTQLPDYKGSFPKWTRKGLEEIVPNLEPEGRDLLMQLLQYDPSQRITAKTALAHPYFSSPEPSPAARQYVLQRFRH
Sequence of CDK3/Cyclin E1 (P24864 whole entry partner): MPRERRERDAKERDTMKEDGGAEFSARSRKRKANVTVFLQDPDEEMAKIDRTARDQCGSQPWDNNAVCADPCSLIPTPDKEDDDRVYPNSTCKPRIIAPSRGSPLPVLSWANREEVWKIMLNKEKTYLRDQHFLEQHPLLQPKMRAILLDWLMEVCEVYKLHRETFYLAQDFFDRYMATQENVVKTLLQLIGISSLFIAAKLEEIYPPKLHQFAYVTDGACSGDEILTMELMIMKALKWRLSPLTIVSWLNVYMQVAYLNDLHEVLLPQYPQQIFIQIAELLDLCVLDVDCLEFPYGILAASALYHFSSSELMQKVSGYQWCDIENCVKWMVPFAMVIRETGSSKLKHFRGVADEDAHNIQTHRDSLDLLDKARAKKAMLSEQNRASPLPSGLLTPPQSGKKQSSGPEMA
Sequence of CDK4/Cyclin D1 (P11802 whole entry): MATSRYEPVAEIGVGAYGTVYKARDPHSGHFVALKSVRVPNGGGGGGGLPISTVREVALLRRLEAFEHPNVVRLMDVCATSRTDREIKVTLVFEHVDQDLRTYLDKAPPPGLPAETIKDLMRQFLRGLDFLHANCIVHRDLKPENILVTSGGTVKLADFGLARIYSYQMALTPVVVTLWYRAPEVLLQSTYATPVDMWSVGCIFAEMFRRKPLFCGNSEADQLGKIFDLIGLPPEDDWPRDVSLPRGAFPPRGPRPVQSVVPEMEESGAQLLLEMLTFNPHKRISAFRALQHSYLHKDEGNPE
Sequence of CDK4/Cyclin D1 (P24385 whole entry partner): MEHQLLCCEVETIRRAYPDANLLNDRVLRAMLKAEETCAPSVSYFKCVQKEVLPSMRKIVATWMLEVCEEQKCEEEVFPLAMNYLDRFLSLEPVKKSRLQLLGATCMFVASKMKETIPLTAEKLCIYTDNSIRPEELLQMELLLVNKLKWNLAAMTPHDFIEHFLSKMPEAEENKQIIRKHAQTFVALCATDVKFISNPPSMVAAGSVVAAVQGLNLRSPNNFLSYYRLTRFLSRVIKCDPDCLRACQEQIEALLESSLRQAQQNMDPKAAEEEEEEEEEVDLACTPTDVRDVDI
Sequence of CDK12/Cyclin K (Q9NYV4 1-1481 isoform Q9NYV4-2): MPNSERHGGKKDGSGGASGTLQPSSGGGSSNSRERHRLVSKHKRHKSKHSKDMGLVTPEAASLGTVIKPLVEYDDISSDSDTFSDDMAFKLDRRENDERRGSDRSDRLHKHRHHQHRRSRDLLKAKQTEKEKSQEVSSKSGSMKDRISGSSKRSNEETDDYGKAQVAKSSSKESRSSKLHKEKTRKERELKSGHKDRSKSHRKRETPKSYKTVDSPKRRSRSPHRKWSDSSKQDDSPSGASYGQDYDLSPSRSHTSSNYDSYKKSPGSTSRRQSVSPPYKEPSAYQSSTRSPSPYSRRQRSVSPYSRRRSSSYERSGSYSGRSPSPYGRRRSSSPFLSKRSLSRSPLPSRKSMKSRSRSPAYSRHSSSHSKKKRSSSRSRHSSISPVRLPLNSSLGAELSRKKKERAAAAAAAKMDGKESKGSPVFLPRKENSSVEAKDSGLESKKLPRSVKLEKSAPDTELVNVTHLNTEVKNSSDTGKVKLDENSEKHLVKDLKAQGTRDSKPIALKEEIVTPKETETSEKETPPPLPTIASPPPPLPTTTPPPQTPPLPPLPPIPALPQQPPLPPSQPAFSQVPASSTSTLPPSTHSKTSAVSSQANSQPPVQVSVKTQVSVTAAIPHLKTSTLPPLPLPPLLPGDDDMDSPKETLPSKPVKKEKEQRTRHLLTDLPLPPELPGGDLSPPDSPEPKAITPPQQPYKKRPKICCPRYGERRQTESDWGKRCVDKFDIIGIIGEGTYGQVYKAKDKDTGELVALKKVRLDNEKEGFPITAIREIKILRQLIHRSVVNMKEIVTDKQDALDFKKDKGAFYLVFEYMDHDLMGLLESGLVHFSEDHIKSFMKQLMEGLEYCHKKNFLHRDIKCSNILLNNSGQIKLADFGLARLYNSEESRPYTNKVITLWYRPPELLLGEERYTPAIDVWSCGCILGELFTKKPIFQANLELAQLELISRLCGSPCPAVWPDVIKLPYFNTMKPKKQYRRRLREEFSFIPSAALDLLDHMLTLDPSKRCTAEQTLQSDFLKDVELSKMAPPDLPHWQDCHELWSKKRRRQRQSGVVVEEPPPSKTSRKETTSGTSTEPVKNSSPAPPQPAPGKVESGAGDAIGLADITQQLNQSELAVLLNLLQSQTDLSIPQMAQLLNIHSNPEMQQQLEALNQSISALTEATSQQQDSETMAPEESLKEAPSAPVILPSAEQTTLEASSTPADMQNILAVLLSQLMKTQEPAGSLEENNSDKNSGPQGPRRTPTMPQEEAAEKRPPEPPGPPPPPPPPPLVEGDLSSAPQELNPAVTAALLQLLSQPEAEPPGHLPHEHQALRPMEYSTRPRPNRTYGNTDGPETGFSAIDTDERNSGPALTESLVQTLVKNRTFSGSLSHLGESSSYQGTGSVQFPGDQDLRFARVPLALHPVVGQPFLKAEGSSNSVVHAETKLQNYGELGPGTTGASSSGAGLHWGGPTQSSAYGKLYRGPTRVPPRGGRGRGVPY
Sequence of CDK12/Cyclin K (O75909 whole entry partner): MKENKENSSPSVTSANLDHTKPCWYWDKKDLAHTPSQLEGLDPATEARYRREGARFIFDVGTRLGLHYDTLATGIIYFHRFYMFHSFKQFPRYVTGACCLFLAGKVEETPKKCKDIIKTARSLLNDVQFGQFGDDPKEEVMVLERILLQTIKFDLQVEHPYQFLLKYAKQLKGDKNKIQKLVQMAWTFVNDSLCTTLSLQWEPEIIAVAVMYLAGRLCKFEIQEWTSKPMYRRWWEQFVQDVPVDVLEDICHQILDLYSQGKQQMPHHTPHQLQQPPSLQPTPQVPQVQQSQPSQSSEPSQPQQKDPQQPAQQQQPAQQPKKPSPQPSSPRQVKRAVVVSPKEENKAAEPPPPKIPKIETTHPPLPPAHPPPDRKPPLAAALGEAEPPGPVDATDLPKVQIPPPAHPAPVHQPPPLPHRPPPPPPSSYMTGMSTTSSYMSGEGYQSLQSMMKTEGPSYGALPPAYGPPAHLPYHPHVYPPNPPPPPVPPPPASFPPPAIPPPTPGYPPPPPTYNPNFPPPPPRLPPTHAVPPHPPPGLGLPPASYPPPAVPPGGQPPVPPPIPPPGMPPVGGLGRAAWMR
Sequence of CDK1/Cyclin E1 (P06493 whole entry): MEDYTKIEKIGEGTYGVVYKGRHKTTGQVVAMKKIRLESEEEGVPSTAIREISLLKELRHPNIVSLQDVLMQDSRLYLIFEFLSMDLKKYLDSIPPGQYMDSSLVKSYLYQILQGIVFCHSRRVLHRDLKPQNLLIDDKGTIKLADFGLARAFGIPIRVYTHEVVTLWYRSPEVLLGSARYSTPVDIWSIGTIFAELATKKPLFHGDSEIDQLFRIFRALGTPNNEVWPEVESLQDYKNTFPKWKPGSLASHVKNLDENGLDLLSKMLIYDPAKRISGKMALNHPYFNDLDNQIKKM
Sequence of CDK1/Cyclin E1 (P24864 whole entry partner): as the sequence (P24864 whole entry partner) above
Sequence of CDK19/Cyclin C (Q9BWU1 whole entry): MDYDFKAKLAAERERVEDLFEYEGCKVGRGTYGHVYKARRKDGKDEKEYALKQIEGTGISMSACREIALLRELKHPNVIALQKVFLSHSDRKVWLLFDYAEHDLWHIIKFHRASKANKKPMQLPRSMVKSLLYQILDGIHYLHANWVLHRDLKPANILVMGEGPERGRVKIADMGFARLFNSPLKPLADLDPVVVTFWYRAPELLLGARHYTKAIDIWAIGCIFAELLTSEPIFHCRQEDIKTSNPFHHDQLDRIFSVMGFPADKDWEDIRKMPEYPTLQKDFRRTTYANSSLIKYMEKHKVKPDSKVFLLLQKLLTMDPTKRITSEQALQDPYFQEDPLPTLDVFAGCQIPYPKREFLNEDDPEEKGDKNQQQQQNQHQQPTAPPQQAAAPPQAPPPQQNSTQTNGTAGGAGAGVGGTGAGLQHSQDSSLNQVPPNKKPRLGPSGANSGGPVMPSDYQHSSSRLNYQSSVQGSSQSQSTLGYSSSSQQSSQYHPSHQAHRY
Sequence of CDK19/Cyclin C (P24863 whole entry partner): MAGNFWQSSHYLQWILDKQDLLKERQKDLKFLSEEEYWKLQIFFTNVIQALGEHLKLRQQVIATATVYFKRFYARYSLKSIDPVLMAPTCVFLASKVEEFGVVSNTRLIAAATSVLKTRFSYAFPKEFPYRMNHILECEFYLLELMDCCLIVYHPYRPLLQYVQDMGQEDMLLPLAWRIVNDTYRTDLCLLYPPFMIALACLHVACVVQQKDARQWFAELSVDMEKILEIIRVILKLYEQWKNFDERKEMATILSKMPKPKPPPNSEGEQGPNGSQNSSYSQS
Sequence of CDK9/Cyclin K (P50750 whole entry): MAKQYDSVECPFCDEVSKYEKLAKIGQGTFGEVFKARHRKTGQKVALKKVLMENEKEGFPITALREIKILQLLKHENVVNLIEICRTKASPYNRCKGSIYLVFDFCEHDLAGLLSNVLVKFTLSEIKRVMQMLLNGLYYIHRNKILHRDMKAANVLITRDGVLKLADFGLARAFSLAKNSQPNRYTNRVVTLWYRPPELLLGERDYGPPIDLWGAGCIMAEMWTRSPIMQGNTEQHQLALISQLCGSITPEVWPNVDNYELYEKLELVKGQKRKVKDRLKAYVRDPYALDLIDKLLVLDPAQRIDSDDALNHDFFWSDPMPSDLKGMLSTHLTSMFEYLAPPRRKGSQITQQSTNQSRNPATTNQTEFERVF
Sequence of CDK9/Cyclin K (O75909 whole entry partner): as the sequence (O75909 whole entry partner) above

inhibition at 10 µM (CDK16/Cyclin Y; experiment 1): 77.1% | inhibition at 10 µM (CDK16/Cyclin Y; experiment 2): 32% | inhibition at 10 µM (CDK15/Cyclin Y; average): 14.9% | inhibition at 10 µM (CDK15/Cyclin Y; experiment 1): 5% | inhibition at 10 µM (CDK15/Cyclin Y; experiment 2): 24.7% | inhibition at 10 µM (CDK3/Cyclin E1; average): 3.3% | inhibition at 10 µM (CDK3/Cyclin E1; experiment 1): 5% | inhibition at 10 µM (CDK3/Cyclin E1; experiment 2): 1.6% | inhibition at 10 µM (CDK19/Cyclin C; average): 13% | inhibition at 10 µM (CDK19/Cyclin C; experiment 1): 7.9% | inhibition at 10 µM (CDK19/Cyclin C; experiment 2): 18.2% | inhibition at 10 µM (CDK13/Cyclin K; average): -0.247% | inhibition at 10 µM (CDK13/Cyclin K; experiment 1): 4.2% | inhibition at 10 µM (CDK13/Cyclin K; experiment 2): -4.7% | inhibition at 10 µM (CDK11A/Cyclin L2; average): 7.4% | inhibition at 10 µM (CDK11A/Cyclin L2; experiment 1): 2% | inhibition at 10 µM (CDK11A/Cyclin L2; experiment 2): 12.8% | inhibition at 10 µM (CDK5/CDK5R1; average): 12.2% | inhibition at 10 µM (CDK5/CDK5R1; experiment 1): 5.5% | inhibition at 10 µM (CDK5/CDK5R1; experiment 2): 18.9% | inhibition at 10 µM (CDK7; average): 35.1% | inhibition at 10 µM (CDK7; experiment 1): 12.3% | inhibition at 10 µM (CDK7; experiment 2): 58% | inhibition at 10 µM (CDK4/Cyclin D1; average): 93.4% | inhibition at 10 µM (CDK4/Cyclin D1; experiment 1): 96.8% | inhibition at 10 µM (CDK4/Cyclin D1; experiment 2): 90.1% | inhibition at 10 µM (CDK11B/Cyclin L2; average): 16.1% | inhibition at 10 µM (CDK11B/Cyclin L2; experiment 1): 0.226% | inhibition at 10 µM (CDK11B/Cyclin L2; experiment 2): 32% | inhibition at 10 µM (CDK9/Cyclin K; average): 29.3% | inhibition at 10 µM (CDK9/Cyclin K; experiment 1): 31% | inhibition at 10 µM (CDK9/Cyclin K; experiment 2): 27.6% | inhibition at 10 µM (CDK6/Cyclin D1; average): 98.9% | inhibition at 10 µM (CDK6/Cyclin D1; experiment 1): 97% | inhibition at 10 µM (CDK6/Cyclin D1; experiment 2): 101% | inhibition at 10 µM (CDK18/Cyclin Y; average): 19.5% | inhibition at 10 µM (CDK18/Cyclin Y; experiment 1): 22.1% | inhibition at 10 µM (CDK18/Cyclin Y; experiment 2): 16.8% | inhibition at 10 µM (CDK20/Cyclin H; experiment 1): 10.2% | inhibition at 10 µM (CDK20/Cyclin H; experiment 2): 7.2% | inhibition at 10 µM (CDK17/Cyclin Y; average): 58.5% | inhibition at 10 µM (CDK17/Cyclin Y; experiment 1): 75.6% | inhibition at 10 µM (CDK17/Cyclin Y; experiment 2): 41.4% | inhibition at 10 µM (CDK8/Cyclin C; average): 4.9% | inhibition at 10 µM (CDK8/Cyclin C; experiment 1): 6.7% | inhibition at 10 µM (CDK8/Cyclin C; experiment 2): 3% | inhibition at 10 µM (CDK1/Cyclin E1; average): 7.7% | inhibition at 10 µM (CDK1/Cyclin E1; experiment 1): 12.1% | inhibition at 10 µM (CDK1/Cyclin E1; experiment 2): 3.2% | inhibition at 10 µM (CDK12/Cyclin K; average): 8.7% | inhibition at 10 µM (CDK12/Cyclin K; experiment 1): -0.9% | inhibition at 10 µM (CDK12/Cyclin K; experiment 2): 18.4% | inhibition at 10 µM (CDK2/Cyclin E1; average): -5.8% | inhibition at 10 µM (CDK2/Cyclin E1; experiment 1): -11% | inhibition at 10 µM (CDK2/Cyclin E1; experiment 2): -0.6%
Compound: CC(C)N1CCN(c2ccc(Nc3ncc4cc5n(c4n3)C3(CCCCC3)CNC5=O)nc2)CC1 [Lerociclib]

Reference: article PMC7265341, “Quantifying CDK inhibitor selectivity in live cells” (Nature Communications, 2020)
